Measured values from DBAASP.
Values after ≈ are worked out from the molar mass of the structure shown. Values joined by “and” are separate entries in the source; they are usually repeats but may differ in a detail not shown here. Equal entries are not always repeated.

Key:
Assay in all cases: ≥ marks a high value that may be exact or a test limit, other limits are often not marked, values filed in µg/mL are converted to µM
[1] = test system: Acinetobacter baumannii ATCC 19606
[2] = test system: Candida parapsilosis ATCC 22019
[3] = test system: Enterococcus faecalis ATCC 29212
[4] = test system: Escherichia coli ATCC 25922
[5] = test system: Escherichia coli ML-35p
[6] = test system: Klebsiella pneumoniae ATCC 13883
[7] = test system: Pseudomonas aeruginosa ATCC 27853
[8] = test system: Saccharomyces cerevisiae
[9] = test system: Staphylococcus aureus ATCC 25923
[10] = test system: Staphylococcus aureus ATCC 43300
[11] = test system: Staphylococcus aureus ATCC BAA-44
[12] = test system: Staphylococcus aureus ST1065
[13] = test system: Streptococcus pyogenes ATCC 19615
[14] = test system: Aureobasidium pullulans
[15] = test system: Bacillus megaterium
[16] = test system: Bacillus subtilis ATCC 23857
[17] = test system: Candida albicans ATCC 10231
[18] = test system: Corynebacterium glutamicum ATCC 13032
[19] = test system: Micrococcus luteus
[20] = test system: Staphylococcus aureus ATCC 9144
[21] = test system: Escherichia coli O157:H7 ATCC 43895
[22] = test system: Aeromonas salmonicida NCIMB 1102
[23] = test system: Bacillus subtilis IAM 1026
[24] = test system: Escherichia coli JCM 1649
[25] = test system: Photobacterium damselae subsp. piscicida Sp 9587
[26] = test system: Salmonella typhimurium
[27] = test system: Shewanella putrefaciens IAM 1509
[28] = test system: Staphylococcus aureus IAM 1011
[29] = test system: Vibrio anguillarum NCIMB 829
[30] = test system: Vibrio parahaemolyticus Vp+1
[31] = test system: Escherichia coli SBS 363
[32] = test system: Staphylococcus aureus ATCC 29213
[33] = test system: Escherichia coli DC2
[34] = test system: Escherichia coli K-12
[35] = test system: Staphylococcus aureus UAMS-1
[36] = test system: Staphylococcus aureus

With CC[C@H](C)[C@H](NC(=O)[C@H](C)NC(=O)[C@H](CC(C)C)NC(=O)[C@H](CO)NC(=O)[C@H](C)NC(=O)[C@@H](NC(=O)CNC(=O)[C@H](CO)NC(=O)[C@@H](NC(=O)[C@@H](NC(=O)[C@H](Cc1cnc[nH]1)NC(=O)[C@@H]1CCCN1C(=O)[C@@H](NC(=O)[C@H](CC(C)C)NC(=O)[C@H](CO)NC(=O)[C@H](CC(C)C)NC(=O)[C@@H](N)Cc1ccccc1)[C@@H](C)CC)[C@@H](C)CC)C(C)C)C(C)C)C(=O)N[C@@H](Cc1cnc[nH]1)C(=O)N[C@@H](Cc1ccccc1)C(N)=O [FLSLIPHIVSGVASLAIHF] the MIC [1] was > 200 µM, the MIC [2] was ≥ 200 µM and the MIC [3] was > 200 µM. For the same compound, the MIC [4] was > 200 µM, the MIC [5] was ≥ 200 µM and the MIC [6] was ≥ 200 µM. For the same compound, the MIC [7] was > 200 µM, the MIC [8] was ≥ 200 µM and the MIC [9] was > 200 µM. For the same compound, the MIC [10] was > 200 µM, the MIC [11] was ≥ 200 µM and the MIC [12] was ≥ 200 µM. The MIC [13] was 12.5 µM (≈ 25.3 µg/mL).
With C[C@H](NC(=O)[C@H](CCCCN)NC(=O)[C@H](Cc1c[nH]c2ccccc12)NC(=O)CNC(=O)CNC(=O)[C@@H]1CCCN1C(=O)[C@H](CCCCN)NC(=O)[C@H](CCCCN)NC(=O)CN)C(=O)N[C@@H](CCCCN)C(N)=O [GKKPGGWKAK] the MIC [14] was ≥ 237 µM, the MIC [15] was ≥ 237 µM and the MIC [16] was ≥ 237 µM. The MIC [17] was > 237 µM, the MIC [18] was ≥ 237 µM and the MIC [4] was > 237 µM. The MIC [19] was ≥ 237 µM, the MIC [7] was > 237 µM and the MIC [20] was ≥ 237 µM.
C[C@H](NC(=O)[C@H](CCCCN)NC(=O)[C@H](Cc1c[nH]c2ccccc12)NC(=O)CNC(=O)CNC(=O)[C@H](Cc1c[nH]c2ccccc12)NC(=O)[C@H](CCCCN)NC(=O)[C@H](CCCCN)NC(=O)CN)C(=O)N[C@@H](CCCCN)C(N)=O [GKKWGGWKAK] was tested, and the MIC [14] was ≥ 54.6 µM, the MIC [15] was 3.41 µM (≈ 3.9 µg/mL) and the MIC [16] was ≥ 109 µM. The MIC [17] was 109 µM (≈ 125 µg/mL), the MIC [18] was 27.3 µM (≈ 31.3 µg/mL) and the MIC [4] was > 218 µM. For the same compound, the MIC [19] was ≥ 218 µM, the MIC [7] was > 218 µM and the MIC [20] was ≥ 218 µM.
Compound CC(C)C[C@H](NC(=O)[C@H](C)N)C(=O)N[C@@H](Cc1c[nH]c2ccccc12)C(=O)N[C@@H](CCCCN)C(=O)N[C@H](C(=O)N[C@@H](CC(C)C)C(=O)N[C@@H](CC(C)C)C(=O)N[C@@H](CCCCN)C(=O)N[C@@H](CCCCN)C(=O)N[C@H](C(=O)N[C@@H](CC(C)C)C(=O)N[C@@H](CCCCN)C(=O)N[C@@H](C)C(=O)N[C@@H](C)C(=O)N[C@@H](C)C(=O)N[C@@H](CCCCN)C(=O)N[C@@H](C)C(=O)N[C@@H](C)C(=O)N[C@@H](CC(C)C)C(=O)N[C@@H](CCCCN)C(=O)N[C@@H](C)C(=O)N[C@H](C(=O)N[C@@H](CC(C)C)C(=O)N[C@H](C(=O)NCC(=O)N[C@@H](C)C(=O)N[C@@H](CC(N)=O)C(=O)N[C@@H](C)C(N)=O)C(C)C)C(C)C)C(C)C)[C@@H](C)O [ALWKTLLKKVLKAAAKAALKAVLVGANA] has an MIC [21] of 8 µM (≈ 22.9 µg/mL).
For CC(C)C[C@H](NC(=O)[C@H](Cc1cnc[nH]1)NC(=O)CNC(=O)[C@H](C)NC(=O)[C@H](C)NC(=O)[C@@H](NC(=O)[C@H](Cc1ccccc1)NC(=O)[C@H](C)NC(=O)[C@H](CC(C)C)NC(=O)[C@H](CCCCN)NC(=O)[C@H](CCCCN)NC(=O)[C@H](CC(C)C)NC(=O)[C@H](CC(C)C)NC(=O)[C@H](CCC(=O)O)NC(=O)[C@H](CCCN=C(N)N)NC(=O)[C@H](Cc1c[nH]c2ccccc12)NC(=O)[C@@H](N)Cc1c[nH]c2ccccc12)[C@@H](C)O)C(=O)NCC(=O)N[C@@H](CO)C(=O)N[C@H](C(=O)N[C@@H](CC(C)C)C(=O)N[C@@H](C)C(=O)N[C@@H](C)C(=O)N[C@@H](CCCCN)C(=O)N[C@@H](CCC(N)=O)C(=O)N[C@@H](CO)C(=O)NCC(=O)N[C@@H](Cc1c[nH]c2ccccc12)C(=O)O)C(C)C [WWRELLKKLAFTAAGHLGSVLAAKQSGW], the MIC [22] was 8 µM (≈ 25 µg/mL), the MIC [23] was 8 µM (≈ 25 µg/mL) and the MIC [24] was 16 µM (≈ 50 µg/mL). It also gave an MIC [25] of 8 µM (≈ 25 µg/mL), an MIC [26] of 16 µM (≈ 50 µg/mL) and an MIC [27] of 2 µM (≈ 6.25 µg/mL). For the same compound, the MIC [28] was 4 µM (≈ 12.5 µg/mL), the MIC [29] was 16 µM (≈ 50 µg/mL) and the MIC [30] was 16 µM (≈ 50 µg/mL).
In the case of CC(C)C[C@H](NC(=O)CN)C(=O)N[C@@H](Cc1ccccc1)C(=O)N[C@@H](CCCCN)C(=O)NCC(=O)N[C@@H](CCCCN)C(=O)N[C@@H](CCCCN)C(=O)N[C@@H](CCCCN)C(=O)N[C@@H](CC(N)=O)C(=O)N[C@@H](CCCCN)C(=O)N[C@@H](CCCCN)C(=O)N[C@H](C(=O)N[C@@H](CCCCN)C(N)=O)[C@@H](C)O [GLFKGKKKNKKTK], the MIC [4] is reported as > 250 µM, the MIC [31] is reported as ≥ 250 µM and the MIC [32] is reported as > 250 µM.
With CC[C@H](C)[C@H](NC(=O)[C@H](CCC(N)=O)NC(=O)CNC(=O)[C@H](CC(C)C)NC(=O)[C@@H](NC(=O)[C@H](CCCCN)NC(=O)[C@H](CCCN=C(N)N)NC(=O)[C@H](Cc1c[nH]c2ccccc12)NC(=O)[C@@H](N)CC(N)=O)[C@@H](C)CC)C(=O)N[C@@H](C)C(=O)N[C@@H](CO)C(=O)N[C@H](C(=O)NCC(=O)N[C@@H](C)C(=O)NCC(=O)N[C@@H](CC(C)C)C(=O)N[C@@H](CC(C)C)C(=O)NCC(=O)N[C@@H](CO)C(=O)N[C@@H](CC(C)C)C(=O)N[C@@H](CC(C)C)C(=O)N[C@@H](C)C(=O)NCC(=O)N[C@@H](Cc1ccc(O)cc1)C(=O)N[C@@H](CCC(=O)O)C(=O)O)C(C)C [NWRKILGQIASVGAGLLGSLLAGYE] the MIC [22] was 19.3 µM (≈ 50 µg/mL), the MIC [23] was 19.3 µM (≈ 50 µg/mL) and the MIC [24] was 19.3 µM (≈ 50 µg/mL). The MIC [25] was 9.66 µM (≈ 25 µg/mL), the MIC [26] was 19.3 µM (≈ 50 µg/mL) and the MIC [27] was 4.83 µM (≈ 12.5 µg/mL). It also gave an MIC [28] of 19.3 µM (≈ 50 µg/mL), an MIC [29] of 19.3 µM (≈ 50 µg/mL) and an MIC [30] of 19.3 µM (≈ 50 µg/mL).
For CC[C@H](C)[C@H](NC(=O)[C@H](CCCCN)NC(=O)[C@H](CCC(=O)O)NC(=O)[C@H](CCCCN)NC(=O)[C@@H](NC(=O)[C@H](CCCCN)NC(=O)[C@H](CCCN=C(N)N)NC(=O)[C@H](Cc1ccccc1)NC(=O)[C@H](Cc1ccccc1)NC(=O)[C@H](CC(=O)O)NC(=O)CNC(=O)[C@H](CC(C)C)NC(=O)[C@@H](N)CC(C)C)C(C)C)C(=O)NCC(=O)N[C@@H](CCCCN)C(=O)N[C@@H](CCC(=O)O)C(=O)N[C@@H](Cc1ccccc1)C(=O)N[C@@H](CCCCN)C(=O)N[C@@H](CCCN=C(N)N)C(=O)N[C@H](C(=O)N[C@H](C(=O)N[C@@H](CCC(N)=O)C(=O)N[C@@H](CCCN=C(N)N)C(=O)O)C(C)C)[C@@H](C)CC [LLGDFFRKVKEKIGKEFKRIVQR], the MIC [33] was 2 µM (≈ 5.67 µg/mL), the MIC [34] was ≥ 40 µM and the MIC [35] was ≥ 160 µM. The MIC [36] was > 24 µM and 12 µM.
